Measurements: article PMC6992361 (Molecular cancer therapeutics, 2019)

How the values were obtained:
[1] = test system: 786-O RCC tumor xenograft; test: Multiplexed immunohistochemistry analysis of tumors; assay type: in vivo, mouse; conditions: 786-O xenograft tumors
[2] = test system: 786-O RCC tumor xenograft; test: Arterial spin labeled MRI of tumor blood flow; assay type: in vivo, mouse; conditions: day 26 +/- 4 days
[3] = test system: 786-O RCC tumor xenograft; assay type: in vivo; conditions: 786-O xenograft; sunitinib 50 mg/kg, Ex82 30mg/kg daily by gavage
[4] = test system: monolayer of endothelial cells; test: Transendothelial electrical impedance assay; assay type: cell-based; conditions: S1P at 10 nM

## CCN(CC)CCNC(=O)c1c(C)[nH]c(/C=C2\C(=O)Nc3ccc(F)cc32)c1C [sunitinib]
[1]
  S1P1 expression in tumors: significantly reduced
  percent area of TUNEL: 10.9%
  percent area of tumor vessels (CD34): 7.2%
[2]
  tumor blood flow (ASL MRI): lower tumor blood flow than vehicle
[3]
  tumor growth: slowed tumor growth

## CCCCCCCCCCCCC/C=C/[C@@H](O)[C@@H](N)COP(=O)(O)O [S1P, sphingosine-1-phosphate]
[4]
  electrical impedance of endothelial monolayer: strongly increases electrical impedance
